# Source: patent US12239650B2, “Compounds for treating and preventing net associated complications” (The Australian National University, priority 2019, dated 2025)
# Where two headings read alike, the source gives them in different places.
# Tests used:
# [1] = system: histone-induced platelet aggregation; assay: Histone-induced aggregation of isolated platelets; assay type: cell-based, human; conditions: histones 150 μg/mL, isolated platelets, FIG. 4b
# Procedure: In vitro platelet aggregation and degranulation assays. For aggregation studies platelets were isolated from human whole blood collected into Na-citrate vacutainers through 2-step centrifugation at room temperature (200×g for 20 min then the platelet-rich plasma 800×g for 15 min), the platelet pellet resuspended in Hank's balanced salt solution containing calcium and magnesium and histones added and incubated in the presence/absence of compounds at the concentrations of each as indicated. Samples were assessed for degree of platelet aggregation after 15 min exposure to histones by flow cytometry using the characteristic log FSC versus log SSC identification of platelets, with increases in the geometric mean of log FSC indicative of platelet aggregation.
# [2] = system: histones; assay: In-vivo histone toxicity assay; conditions: mice; for Protection from histone-induced liver damage, generalised tissue injury and kidney failure (circulating ALT, LDH, creatinine): compound i.p. 10 min prior to i.v. histones 50 mg kg^−1, blood 4 h post-histones, concentration-dependent
# Procedure: In-vivo histone toxicity assays. BALB/c female mice (5-6 weeks of age), that are more prone to histone-induced anemia and easier to inject i.v. at this young age than C57BL/6 mice, were injected i.p. with test compounds at concentrations indicated 10 min prior to i.v. injection of histones (50 mg kg^−1) in phosphate buffered saline. Retro-orbital bleeds were performed with glass Pasteur pipettes 10 min after histone injection and collected blood added to acid citrate dextrose (ACD), the 10 min blood sample being subjected to hematologic analyses for platelet and erythrocyte content using an ADVIA 2120i Hematology Analyzer. Spleens were also harvested at 10 min post-histone injection and splenic hemoglobin content quantified using a hemoglobin assay kit (Sigma-Aldrich). In the case of 4 h blood samples, male C57/BL/6 mice (6-8 weeks of age) were injected with test compounds and histones as above and plasma isolated and stored frozen for subsequent biochemical testing, with markers for liver (alanine aminotransferase, ALT), kidney (creatinine, Crea) and general tissue (lactate dehydrogenase, LDH) damage being determined by the Department of Pathology, The Canberra Hospital.
# [3] = system: histone-mediated cytotoxicity for HMEC-1; assay: Histone-mediated cytotoxicity assay (PI/Calcein-AM flow cytometry); assay type: cell-based
# Procedure: Histone-mediated cytotoxicity assays. To determine the cytotoxicity of calf thymus histones (Sigma-Aldrich), various concentrations of histones (100-800 μg ml^−1) were added to suspensions of HMEC-1 or HUVEC (1×10^6 ml^−1) in 96 well plates and incubated for 1 h at 37° C. Cells were then incubated for 5 min at 37° C. with propidium iodide (PI; 2.5 μg ml^−1) (ThermoFisher Scientific), to detect dead cells, and Calcein-AM (0.04 μM) (ThermoFisher Scientific), to detect viable cells, placed on ice and the percentage of dead and viable cells determined by flow cytometry using gating strategies. In inhibition assays, HMEC-1 were incubated with histones (400 μg ml^−1) for 1 h at 37° C. in the presence of different concentrations of compounds (12.5-400 μg ml^−1) prior to the addition of PI and Calcein-AM. HMEC-1 cytotoxicity at each compound concentration was then determined based on the formula:
# [formula] and the IC50 value for each polyanion then determined based on the line of best fit (nonlinear regression analysis) using Prism Software (Graphpad Software). In all assays MTS (IC50 30 μg ml^−1) was included as a standard to compensate for experimental variation, with data being adjusted in each assay to MTS having an IC50 of 30 μg ml^−1.
# [4] = system: histone-mediated RBC aggregation; assay: Histone-mediated erythrocyte aggregation (flow cytometry, scanning EM); assay type: cell-based, human
# Procedure: (§1) Human erythrocytes (RBC) were incubated for 1 h at 37° C. alone (‘Saline’ control) or in the presence of histones (400 μg ml^−1) with or without mCBS (200 μg ml^−1). a, Percentage of RBC aggregation measured by flow cytometry based on forward (FSC) and side (SSC) scatter parameters and an appropriate gating strategy to discriminate aggregated from normal (non-aggregated) RBC. b, Scanning electron micrographs depicting level of RBC aggregation at low and high magnification following the three treatments depicted in (a). c, Concentration dependent inhibition of histone-mediated RBC aggregation by mCBS and MTS, in this case RBC aggregation being calculated by flow cytometry as fold increase in RBC auto-fluorescence relative to RBC in the absence of histones. The fold increase values also provide an estimate of the number of RBC in each aggregate. d, Retention of RBC in an artificial spleen that measures RBC deformability. RBC were incubated with increasing concentrations of histones for 1 h and, at the highest concentration used (400 μg ml^−1), also incubated with either mCBS or MTS (100 and 200 μg ml^−1), prior to passage through the artificial spleen. Data are mean±s.e.m. (n=3 biological replicates). ***P<0.001, ****P<0.0001 (one way ANOVA with Dunnett's multiple comparisons test).
# In vitro erythrocyte microscopy, aggregation, fragility and deformability assays. […] J Biol Chem 289, 19531-19537 (2014)). Similarly, erythrocyte fragility induced by histones, in the presence or absence of inhibitors, was quantified using a sheer stress assay that we developed recently (Kordbacheh, F., O'Meara, C. H., Coupland, L. A., Lelliott, P. M. & Parish, C. R. Extracellular histones induce erythrocyte fragility and anemia. Blood 130, 2884-2888 (2017)). Finally, the reduced deformability of erythrocytes in the presence of histones and the effect of inhibitors on this process was assessed by measuring the passage of erythrocytes through an artificial human spleen (Kordbacheh, F., O'Meara, C. H., Coupland, L. A., Lelliott, P. M. & Parish, C. R. Extracellular histones induce erythrocyte fragility and anemia. Blood 130, 2884-2888 (2017); and Deplaine, G. et al. The sensing of poorly deformable red blood cells by the human spleen can be mimicked in vitro. Blood 117, e88-95 (2011)).
# [5] = system: histone-induced erythrocyte rigidity; assay: Erythrocyte deformability, passage through artificial spleen; assay type: cell-based, human; conditions: histones 400 μg ml^−1, compounds 100 and 200 μg ml^−1, FIG. 3d
# Procedure: as §1, with “RBC were incubated with increasing concentrations of histones for 1 h and, at the highest concentration used (400 μg ml^−1), also incubated with either mCBS or MTS (100 and 200 μg ml^−1), prior to passage through the artificial spleen. Data are mean±s.e.m. (n=3 biological replicates). ***P<0.001, ****P<0.0001 (one way ANOVA with Dunnett's multiple comparisons test).” left out
# In vitro erythrocyte microscopy, aggregation, fragility and deformability assays. […] Similarly, erythrocyte fragility induced by histones, in the presence or absence of inhibitors, was quantified using a sheer stress assay that we developed recently (Kordbacheh, F., O'Meara, C. H., Coupland, L. A., Lelliott, P. M. & Parish, C. R. Extracellular histones induce erythrocyte fragility and anemia. Blood 130, 2884-2888 (2017)). […]
# [6] = system: anti-proliferative effect of histones on HMEC-1; assay: HMEC-1 proliferation (3H-thymidine) after histone exposure; assay type: cell-based, human; conditions: compounds 100 μg ml^−1, histones 400 μg ml^−1, FIG. 8b
# [7] = Rat ischemia reperfusion tissue (skin) flap model; assay type: in vivo; conditions: rat skin flap IRI, 50 mg kg^−1 i.p., 72 h, FIG. 7d
# Description: Rat ischemia reperfusion tissue flap model. The procedure employed is largely based on a previously described method (Bone, R. C. et al. Definitions for sepsis and organ failure and guidelines for the use of innovative therapies in sepsis. The ACCP/SCCM Consensus Conference Committee. American College of Chest Physicians/Society of Critical Care Medicine. Chest 101, 1644-1655 (1992)). Briefly, male Wistar rats were anaesthetized, locally depilated and a 3 cm by 6 cm fasciocutaneous flap was excised leaving the vascular pedicle intact. […] The clamp was removed 10 h post-application permitting returned blood flow to the flap. Test compounds (50 mg kg^−1) or saline were administered i.p. 5 min prior to clamp application and 5 min following its removal. The rats were monitored for a total experimental period of 72 h during which rats received additional compound or saline i.p. at 24 and 48 h post-op. The ‘Control No Clamp’ rats had the tissue flap excised and rubber placed underneath prior to re-suturing, however, the vessel was not clamped and they received saline at the same time points as the other rats. At the end of the experimental period the viability of the flaps was determined by the percentage of black necrotic or reddened areas versus pink viable areas. […]
compound,measurement,setting,value
OC[C@H]1O[C@@H](O[C@H]2[C@H](O)[C@@H](O)[C@H](O)O[C@@H]2CO)[C@H](O)[C@@H](O)[C@@H]1O [CB],Inhibition of histone-induced platelet aggregation,[1],non-inhibitory
same,"Protection from histone-induced liver damage, generalised tissue injury and kidney failure (circulating ALT, LDH, creatinine)",[2]; FIG. 6a,inactive
O=S(=O)(O)OC[C@H]1OC(OS(=O)(=O)O)[C@H](OS(=O)(=O)O)[C@@H](OS(=O)(=O)O)[C@@H]1OS(=O)(=O)O (some centres unmarked) [glucose per-O-sulfate],Inhibition of histone-mediated cytotoxicity for HMEC-1 (endothelial cells),[3],little or no inhibitory activity
CO[C@@H]1O[C@H](COS(=O)(=O)O)[C@@H](OS(=O)(=O)O)[C@H](OS(=O)(=O)O)[C@H]1OS(=O)(=O)O [methyl β-glucoside per-O-sulfate],Inhibition of histone-mediated cytotoxicity for HMEC-1 (endothelial cells),"[3]; compared with heparin, FIG. 2a",little or no inhibitory activity
β-O-methyl cellobioside sulfate [mCBS],Prevention of histone-mediated RBC aggregation (auto-fluorescence),"[4]; histones 400 μg ml^−1, FIG. 3c",prevented aggregation in a concentration dependent manner
same,Inhibition of histone-induced erythrocyte aggregation (FSC/SSC),"[4]; histones 400 μg ml^−1, mCBS 200 μg ml^−1, 1 h 37° C., FIG. 3a, confirmed by scanning EM",completely inhibited
same,Inhibition of histone-induced platelet aggregation,[1],completely inhibited
same,Ability of erythrocytes to passage through an artificial spleen,[5],totally restored
same,Inhibition of histone-mediated cytotoxicity for HMEC-1 (endothelial cells),"[3]; compared with heparin, FIG. 2a",as effective as heparin
same,Neutralization of anti-proliferative effect of histones on HMEC-1 monolayers,[6],completely neutralized
same,Histone-induced thrombocytopenia and anaemia,"[2]; 100 mg kg^−1 i.p., 10 min post-histones, FIG. 6b",prevented
same,Relative potency in protecting from histone-induced tissue pathologies,[2]; FIG. 6a,equally active
same,"Protection from histone-induced liver damage, generalised tissue injury and kidney failure (circulating ALT, LDH, creatinine)",[2]; FIG. 6a,protected
same,Viable area of the skin flap,[7],consistently and significantly increased
